In patent US20240041991A1, “STABLE LIQUID DISPERSINB COMPOSITIONS” (KANE BIOTECH INC., priority 2020, published 2024):
Where two headings read alike, the source gives them in different places. Marks after values point to notes of the source that are not given here.

Tested on: DispersinB
Assay type: biochemical, Aggregatibacter actinomycetemcomitans
Settings: for % enzymatic activity of DispersinB (Mean): polyol % as in label
Method: Samples from each formula was incubated at 3 different temperatures (42° C., 52° C. and 62° C.) for 3 hours. Following a 3 hour incubation, the samples were brought to room temperature for enzymatic activity assay.
Two-tailed paired T-test was performed by to compare each polyol containing treatment with the treatment devoid of polyol. Treatment with probability values (p) less than 5% (0.05) was considered significant.

Compound: OCC(O)CO [glycerol, Propane-1,2,3-triol]
- % enzymatic activity of DispersinB (Mean) (4° C., freshly made control without polyol = 100%, listed as Glycerol 1%): 117* %
- % enzymatic activity of DispersinB (Mean) (4° C., freshly made control without polyol = 100%, listed as Glycerol 2.5%): 114* %
- % enzymatic activity of DispersinB (Mean) (4° C., freshly made control without polyol = 100%, listed as Glycerol 5%): 116* %
- % enzymatic activity of DispersinB (Mean) (4° C., freshly made control without polyol = 100%, listed as Glycerol 10%): 124* %
- % enzymatic activity of DispersinB (Mean) (4° C., freshly made control without polyol = 100%, listed as Glycerol 20%): 128* %
- % enzymatic activity of DispersinB (Mean) (4° C., freshly made control without polyol = 100%, listed as Glycerol 30%): 131* %
- % enzymatic activity of DispersinB (Mean) (42° C. for 3 hours, control without polyol = 100%, listed as Glycerol 1%): 94* %
- % enzymatic activity of DispersinB (Mean) (42° C. for 3 hours, control without polyol = 100%, listed as Glycerol 2.5%): 98* %
- % enzymatic activity of DispersinB (Mean) (42° C. for 3 hours, control without polyol = 100%, listed as Glycerol 5%): 90* %
- % enzymatic activity of DispersinB (Mean) (42° C. for 3 hours, control without polyol = 100%, listed as Glycerol 10%): 115* %
- % enzymatic activity of DispersinB (Mean) (42° C. for 3 hours, control without polyol = 100%, listed as Glycerol 20%): 112* %
- % enzymatic activity of DispersinB (Mean) (42° C. for 3 hours, control without polyol = 100%, listed as Glycerol 30%): 116* %
- temperature stabilizing effect on DispersinB at elevated temperatures (42° C., 52° C., and 62° C.): exhibited temperature stabilizing effect
- % enzymatic activity of DispersinB (Mean) (52° C. for 3 hours, control without polyol = 100%, listed as Glycerol 5%): 16* %
- % enzymatic activity of DispersinB (Mean) (52° C. for 3 hours, control without polyol = 100%, listed as Glycerol 10%): 31* %
- % enzymatic activity of DispersinB (Mean) (52° C. for 3 hours, control without polyol = 100%, listed as Glycerol 20%): 92* %
- % enzymatic activity of DispersinB (Mean) (52° C. for 3 hours, control without polyol = 100%, listed as Glycerol 30%): 93* %

Compound: OC[C@@H](O)[C@H](O)[C@@H](O)CO [xylitol, Xylitol]
- % enzymatic activity of DispersinB (Mean) (4° C., freshly made control without polyol = 100%, listed as 0.25% Xylitol): 98%
- % enzymatic activity of DispersinB (Mean) (4° C., freshly made control without polyol = 100%, listed as 0.5% Xylitol): 106%
- % enzymatic activity of DispersinB (Mean) (4° C., freshly made control without polyol = 100%, listed as 1% Xylitol): 97%
- % enzymatic activity of DispersinB (Mean) (4° C., freshly made control without polyol = 100%, listed as 2% Xylitol): 117* %
- % enzymatic activity of DispersinB (Mean) (4° C., freshly made control without polyol = 100%, listed as 4% Xylitol): 120* %
- % enzymatic activity of DispersinB (Mean) (4° C., freshly made control without polyol = 100%, listed as 6% Xylitol): 115%
- % enzymatic activity of DispersinB (Mean) (4° C., freshly made control without polyol = 100%, listed as 8% Xylitol): 118%
- % enzymatic activity of DispersinB (Mean) (4° C., freshly made control without polyol = 100%, listed as 10% Xylitol): 107%
- % enzymatic activity of DispersinB (Mean) (4° C., freshly made control without polyol = 100%, listed as 20% Xylitol): 91* %
- % enzymatic activity of DispersinB (Mean) (4° C., freshly made control without polyol = 100%, listed as 30% Xylitol): 85* %
- % enzymatic activity of DispersinB (Mean) (4° C., freshly made control without polyol = 100%, listed as 40% Xylitol): 86* %
- % enzymatic activity of DispersinB (Mean) (42° C. for 3 hours, control without polyol = 100%, listed as 0.25% Xylitol): 90%
- % enzymatic activity of DispersinB (Mean) (42° C. for 3 hours, control without polyol = 100%, listed as 0.5% Xylitol): 85%
- % enzymatic activity of DispersinB (Mean) (42° C. for 3 hours, control without polyol = 100%, listed as 1% Xylitol): 88%
- % enzymatic activity of DispersinB (Mean) (42° C. for 3 hours, control without polyol = 100%, listed as 2% Xylitol): 101* %
- % enzymatic activity of DispersinB (Mean) (42° C. for 3 hours, control without polyol = 100%, listed as 4% Xylitol): 91%
- % enzymatic activity of DispersinB (Mean) (42° C. for 3 hours, control without polyol = 100%, listed as 6% Xylitol): 97%
- % enzymatic activity of DispersinB (Mean) (42° C. for 3 hours, control without polyol = 100%, listed as 8% Xylitol): 93%
- % enzymatic activity of DispersinB (Mean) (42° C. for 3 hours, control without polyol = 100%, listed as 10% Xylitol): 86%
- % enzymatic activity of DispersinB (Mean) (42° C. for 3 hours, control without polyol = 100%, listed as 20% Xylitol): 80%
- % enzymatic activity of DispersinB (Mean) (42° C. for 3 hours, control without polyol = 100%, listed as 30% Xylitol): 71* %
- % enzymatic activity of DispersinB (Mean) (42° C. for 3 hours, control without polyol = 100%, listed as 40% Xylitol): 72* %
- % enzymatic activity of DispersinB (Mean) (52° C. for 3 hours, control without polyol = 100%, listed as 0.25% Xylitol): 6%
- % enzymatic activity of DispersinB (Mean) (52° C. for 3 hours, control without polyol = 100%, listed as 0.5% Xylitol): 7%
- % enzymatic activity of DispersinB (Mean) (52° C. for 3 hours, control without polyol = 100%, listed as 1% Xylitol): 9* %
- % enzymatic activity of DispersinB (Mean) (52° C. for 3 hours, control without polyol = 100%, listed as 2% Xylitol): 17* %
- % enzymatic activity of DispersinB (Mean) (52° C. for 3 hours, control without polyol = 100%, listed as 4% Xylitol): 26* %
- % enzymatic activity of DispersinB (Mean) (52° C. for 3 hours, control without polyol = 100%, listed as 6% Xylitol): 43* %
- % enzymatic activity of DispersinB (Mean) (52° C. for 3 hours, control without polyol = 100%, listed as 8% Xylitol): 53* %
- % enzymatic activity of DispersinB (Mean) (52° C. for 3 hours, control without polyol = 100%, listed as 10% Xylitol): 61* %
- % enzymatic activity of DispersinB (Mean) (52° C. for 3 hours, control without polyol = 100%, listed as 20% Xylitol): 69* %
- % enzymatic activity of DispersinB (Mean) (52° C. for 3 hours, control without polyol = 100%, listed as 30% Xylitol): 70* %
- % enzymatic activity of DispersinB (Mean) (52° C. for 3 hours, control without polyol = 100%, listed as 40% Xylitol): 68* %
- % enzymatic activity of DispersinB (Mean) (62° C. for 3 hours, control without polyol = 100%, listed as 8% Xylitol): 1* %
- % enzymatic activity of DispersinB (Mean) (62° C. for 3 hours, control without polyol = 100%, listed as 10% Xylitol): 2* %
- % enzymatic activity of DispersinB (Mean) (62° C. for 3 hours, control without polyol = 100%, listed as 20% Xylitol): 2* %
- % enzymatic activity of DispersinB (Mean) (62° C. for 3 hours, control without polyol = 100%, listed as 30% Xylitol): 3* %
- % enzymatic activity of DispersinB (Mean) (62° C. for 3 hours, control without polyol = 100%, listed as 40% Xylitol): 42* %
